According to patent US10960015B2, “Effervescent formulation based on pyridoxal-5-phosphate” (Assistance Publique-Hopitaux De Paris, priority 2015, dated 2021):

Tests used:
Assay type in all cases: physicochemical
[1] = Laser diffraction granulometry (dry mode, Mastersizer S)
Method: Laser Diffraction Granulometry (European Pharmacopeia (PE), Current Edition, 2.9.31)
Analysis of the granulometric distribution was performed in dry mode on a Mastersizer S laser granulometer (Malvern®). The detection range of this instrument in dry mode is from 0.05 μm to 900 μm. This study was performed on 20 g of active principle, at a pressure of 1, 2 and 3 bar. Each test was performed 3 times for each pressure.

[2] = Funnel flow (Erweka flow tester, PE 2.9.16); conditions: standardized funnel; 100 g raw materials, 20 g mixtures
Method: (§1) A. Funnel Flow and Angle of Repose (PE 2.9.16-2.9.36)
(§2) The tests were performed on an Erweka® flow tester on all of the raw materials and mixtures tested using a standardized funnel. The tests performed on the raw materials were carried out on 100 g of powder, and on 20 g for mixtures (batches A, F, G, H, I, J).

[3] = Angle of repose (PE 2.9.36); conditions: mixing time 5 minutes
Method: as §1, §2
Determination of the angle of repose was performed on the powders alone and on the mixtures, as defined in the European Pharmacopeia. Different mixing times of 5, 10 and 30 minutes were tested on the mixtures (batches of F to J) to determine the influence of the mixing time on the flow (Table IV).

[4] = Tapped density (volumenometer, PE 2.9.34); conditions: after tamping; for Hausner ratio: criterion <1.20; for Carr index: criterion <20%
Method: B. Tapped Density (PE 2.9.34)
The tests were performed on a volumenometer (Erweka® GmbH SVM12). The Carr and Hausner indices can be determined by this test. The tests performed on the raw materials were carried out on 100 g of powder, and on 20 g for mixtures (batches A, F, G, H, I, J).

Cc1ncc(COP(=O)(O)O)c(C=O)c1O [Batch A, Pyridoxal-5-phosphate]
d50 ([1]; dry mode): 11 μm | particle size ([1]; dry mode, 1, 2 and 3 bar): below 100 μm | Flow [2]: no flow

OC[C@H]1O[C@@](CO)(O[C@H]2O[C@H](CO)[C@@H](O)[C@H](O)[C@H]2O)[C@@H](O)[C@@H]1O [Batch D, Sucrose]
Flow [2]: 22 s | Angle of repose [3]: 40.5° | Angle of repose, Interpretation [3]: Quite | Carr index, interpretation [4]: Excellent | Compactibility (V10-V500) [4]: 3 mL | Hausner ratio, interpretation [4]: Excellent | Hausner ratio [4]: 1.10 | Carr index [4]: 8.70%

OC[C@@H](O)[C@@H](O)[C@H](O)[C@@H](O)CO [Batch E, Sorbitol]
Flow [2]: 9.6 s | Angle of repose [3]: 43.6° | Angle of repose, Interpretation [3]: Passable | Carr index, interpretation [4]: Excellent | Compactibility (V10-V500) [4]: 9 mL | Hausner ratio, interpretation [4]: Excellent | Hausner ratio [4]: 1.10 | Carr index [4]: 9.05%

OC[C@@H](O)[C@@H](O)[C@H](O)[C@H](O)CO [Batch Q, Mannitol]
Flow [2]: 27.1 s | Angle of repose [3]: 38.3° | Angle of repose, Interpretation [3]: Quite | Carr index, interpretation [4]: Excellent | Compactibility (V10-V500) [4]: 0 mL | Hausner ratio, interpretation [4]: Excellent | Hausner ratio [4]: 1.02 | Carr index [4]: 7.48%

Isomalt [Batch C]
Flow [2]: 23.8 s | Angle of repose [3]: 45° | Angle of repose, Interpretation [3]: Passable | Carr index, interpretation [4]: Good | Compactibility (V10-V500) [4]: 8 mL | Hausner ratio, interpretation [4]: Good | Hausner ratio [4]: 1.13 | Carr index [4]: 11.25%
